Test results reported in ChEMBL document CHEMBL1773033, “Cyclic lactam hybrid α-MSH/Agouti-related protein (AGRP) analogues with nanomolar range binding affinities at the human melanocortin receptors” (Bioorg Med Chem Lett, 2011).
Positions of bridges follow the written chain, without caps; N, C: chain ends. Non-standard residues stand in square brackets, D forms with d. Residues, ends and D or L forms follow the SMILES beside them. 2Nal = N[C@@H](Cc1ccc2ccccc2c1)C(=O)O

Experiments:
[1] = target: T1, Melanocortin receptor 5 (Homo sapiens, UniProt P33032); test: Agonist activity at human MC5R expressed in HEK293 cells assessed as intracellular cAMP accumulation; type: functional, cell-based
[2] = target: T2, Melanocyte-stimulating hormone receptor (Homo sapiens, UniProt Q01726); test: Agonist activity at human MC1R expressed in HEK293 cells assessed as increase in intracellular cAMP accumulation; type: functional, cell-based
Target sequence in this assay (Q01726 whole entry): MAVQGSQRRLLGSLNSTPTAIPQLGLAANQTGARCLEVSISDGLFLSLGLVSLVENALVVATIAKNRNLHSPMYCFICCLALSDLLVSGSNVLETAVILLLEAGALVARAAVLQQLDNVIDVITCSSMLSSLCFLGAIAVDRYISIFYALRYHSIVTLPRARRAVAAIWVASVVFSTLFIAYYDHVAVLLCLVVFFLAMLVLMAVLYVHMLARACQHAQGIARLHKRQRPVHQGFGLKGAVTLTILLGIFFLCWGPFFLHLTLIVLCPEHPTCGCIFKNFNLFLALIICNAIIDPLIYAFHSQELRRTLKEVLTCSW

[3] = target: T3, Melanocortin receptor 4 (Homo sapiens, UniProt P32245); test: Agonist activity at human MC4R expressed in HEK293 cells assessed as increase in intracellular cAMP level at 10 uM after 3 mins by luminescence counter relative to Ac-Nle-c[Asp-His-D-Phe-Arg-Trp-Lys]-NH2; type: functional, cell-based
[4] = target: T3, Melanocortin receptor 4; test: Agonist activity at human MC4R expressed in HEK293 cells assessed as intracellular cAMP accumulation; type: functional, cell-based
[5] = target: T4, Melanocortin receptor 3 (Homo sapiens, UniProt P41968); test: Agonist activity at human MC3R expressed in HEK293 cells assessed as intracellular cAMP accumulation; type: functional, cell-based
[6] = target: T4, Melanocortin receptor 3; test: Displacement of [125I]-NDP-alpha-MSH from human MC3R expressed in HEK293 cells at 10 uM after 40 mins by Wallac 1470 gamma counting relative to Ac-Nle-c[Asp-His-D-Phe-Arg-Trp-Lys]-NH2; type: cell-based
[7] = target: T3, Melanocortin receptor 4; test: Displacement of [125I]-NDP-alpha-MSH from human MC4R expressed in HEK293 cells after 40 mins by Wallac 1470 gamma counting; type: cell-based
[8] = target: T1, Melanocortin receptor 5; test: Agonist activity at human MC5R expressed in HEK293 cells assessed as increase in intracellular cAMP level at 10 uM after 3 mins by luminescence counter relative to Ac-Nle-c[Asp-His-D-Phe-Arg-Trp-Lys]-NH2; type: functional, cell-based
[9] = target: T1, Melanocortin receptor 5; test: Displacement of [125I]-NDP-alpha-MSH from human MC5R expressed in HEK293 cells at 10 uM after 40 mins by Wallac 1470 gamma counting relative to Ac-Nle-c[Asp-His-D-Phe-Arg-Trp-Lys]-NH2; type: cell-based
[10] = target: T4, Melanocortin receptor 3; test: Agonist activity at human MC3R expressed in HEK293 cells assessed as increase in intracellular cAMP level at 10 uM after 3 mins by luminescence counter relative to Ac-Nle-c[Asp-His-D-Phe-Arg-Trp-Lys]-NH2; type: functional, cell-based
[11] = target: T2, Melanocyte-stimulating hormone receptor; test: Displacement of [125I]-NDP-alpha-MSH from human MC1R expressed in HEK293 cells at 10 uM after 40 mins by Wallac 1470 gamma counting relative to Ac-Nle-c[Asp-His-D-Phe-Arg-Trp-Lys]-NH2; type: cell-based
Target sequence in this assay (Q01726 whole entry, looked up): as the sequence (Q01726 whole entry) above

[12] = target: T2, Melanocyte-stimulating hormone receptor; test: Displacement of [125I]-NDP-alpha-MSH from human MC1R expressed in HEK293 cells after 40 mins by Wallac 1470 gamma counting; type: cell-based
Target sequence in this assay (Q01726 whole entry): as above

[13] = target: T2, Melanocyte-stimulating hormone receptor; test: Agonist activity at human MC1R expressed in HEK293 cells assessed as increase in intracellular cAMP level at 10 uM after 3 mins by luminescence counter relative to Ac-Nle-c[Asp-His-D-Phe-Arg-Trp-Lys]-NH2; type: functional, cell-based
Target sequence in this assay (Q01726 whole entry, looked up): as the sequence (Q01726 whole entry) above

[14] = target: T1, Melanocortin receptor 5; test: Displacement of [125I]-NDP-alpha-MSH from human MC5R expressed in HEK293 cells after 40 mins by Wallac 1470 gamma counting; type: cell-based
[15] = target: T4, Melanocortin receptor 3; test: Displacement of [125I]-NDP-alpha-MSH from human MC3R expressed in HEK293 cells after 40 mins by Wallac 1470 gamma counting; type: cell-based
[16] = target: T3, Melanocortin receptor 4; test: Displacement of [125I]-NDP-alpha-MSH from human MC4R expressed in HEK293 cells at 10 uM after 40 mins by Wallac 1470 gamma counting relative to Ac-Nle-c[Asp-His-D-Phe-Arg-Trp-Lys]-NH2; type: cell-based

T4 sequence (P41968 whole entry): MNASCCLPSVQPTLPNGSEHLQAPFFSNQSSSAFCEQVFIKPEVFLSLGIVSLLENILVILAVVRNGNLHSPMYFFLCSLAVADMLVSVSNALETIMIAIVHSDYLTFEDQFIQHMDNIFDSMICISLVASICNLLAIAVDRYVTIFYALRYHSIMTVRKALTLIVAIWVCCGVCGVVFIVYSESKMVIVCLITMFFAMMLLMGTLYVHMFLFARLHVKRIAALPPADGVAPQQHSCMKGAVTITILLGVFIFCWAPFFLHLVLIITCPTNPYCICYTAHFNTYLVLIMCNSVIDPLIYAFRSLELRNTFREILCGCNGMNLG
T1 sequence (P33032 whole entry): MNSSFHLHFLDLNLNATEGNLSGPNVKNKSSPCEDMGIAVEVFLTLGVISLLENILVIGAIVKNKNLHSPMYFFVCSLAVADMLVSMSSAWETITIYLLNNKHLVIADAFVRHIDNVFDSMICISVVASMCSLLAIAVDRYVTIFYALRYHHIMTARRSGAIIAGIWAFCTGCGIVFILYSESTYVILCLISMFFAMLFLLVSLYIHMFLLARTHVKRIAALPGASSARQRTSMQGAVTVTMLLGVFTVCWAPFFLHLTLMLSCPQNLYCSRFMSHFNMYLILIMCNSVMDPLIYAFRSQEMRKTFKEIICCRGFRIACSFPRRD
T3 sequence (P32245 whole entry): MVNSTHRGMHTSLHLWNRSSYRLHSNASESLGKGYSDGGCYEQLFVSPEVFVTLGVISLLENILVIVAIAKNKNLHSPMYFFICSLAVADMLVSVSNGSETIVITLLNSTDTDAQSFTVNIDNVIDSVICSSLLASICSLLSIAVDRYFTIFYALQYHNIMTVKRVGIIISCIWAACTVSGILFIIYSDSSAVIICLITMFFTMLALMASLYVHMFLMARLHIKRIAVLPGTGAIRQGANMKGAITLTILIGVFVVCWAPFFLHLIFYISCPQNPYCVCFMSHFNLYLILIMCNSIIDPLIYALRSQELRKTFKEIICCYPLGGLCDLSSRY

| EC50 [1] | EC50 [2] | Activity [3] [%] | EC50 [4] | EC50 [5] | Activity [6] [%] | IC50 [7] | Activity [8] [%] | Activity [9] [%] | Activity [10] [%] | Activity [11] [%] | IC50 [12] | Activity [13] [%] | IC50 [14] | IC50 [15] | Activity [16] [%] | Structure (SMILES) |
| --- | --- | --- | --- | --- | --- | --- | --- | --- | --- | --- | --- | --- | --- | --- | --- | --- |
| Not Active | Not Active | 0 | Not Active | Not Active | 30 | Not Active |  |  |  |  |  |  |  |  |  | C[C@@H]1NC(=O)[C@@H](CCCNC(=N)N)NC(=O)[C@H](Cc2ccccc2)NC(=O)[C@H](Cc2c[nH]c3ccccc23)NC(=O)[C@H](CCCNC(=N)N)NC(=O)CC[C@@H](C(N)=O)NC(=O)[C@H](Cc2ccccc2)NC1=O |
| Not Active |  |  | Not Active | Not Active |  |  |  |  |  |  |  |  |  |  |  | C[C@@H]1NC(=O)[C@H](CCCNC(=N)N)NC(=O)[C@@H](Cc2ccccc2)NC(=O)[C@H](Cc2c[nH]c3ccccc23)NC(=O)[C@H](CCCNC(=N)N)NC(=O)CC[C@@H](C(N)=O)NC(=O)[C@H](Cc2ccccc2)NC1=O |
| Not Active | Not Active | 0 | Not Active | Not Active | 0 | Not Active | 0 | 0 | 0 | 0 | Not Active | 0 | Not Active | Not Active | 0 | CC(=O)N[C@H]1CC(=O)NCCCC[C@@H](C(N)=O)NC(=O)[C@@H](CC(N)=O)NC(=O)[C@H](Cc2ccccc2)NC(=O)[C@H](Cc2c[nH]c3ccccc23)NC(=O)[C@H](CCCNC(=N)N)NC1=O (Ac-DRWF[dN]K-NH2; lactam 1-6) |
| Not Active | Not Active | 0 | Not Active | Not Active | 0 | Not Active | 0 |  |  |  | Not Active | 0 | Not Active | Not Active |  | CC(=O)N[C@H]1CC(=O)NCCCC[C@@H](C(N)=O)NC(=O)[C@@H](CC(N)=O)NC(=O)[C@H](Cc2ccc3ccccc3c2)NC(=O)[C@H](Cc2c[nH]c3ccccc23)NC(=O)[C@H](CCCNC(=N)N)NC1=O (Ac-DRW[2Nal][dN]K-NH2; lactam 1-6) |
| Not Active | Not Active | 0 | Not Active | Not Active | 0 | Not Active | 0 |  |  |  | Not Active | 0 | Not Active | Not Active |  | CC(=O)N[C@H]1CC(=O)NCCCC[C@@H](C(N)=O)NC(=O)[C@@H](CCC(N)=O)NC(=O)[C@H](Cc2ccc3ccccc3c2)NC(=O)[C@H](Cc2c[nH]c3ccccc23)NC(=O)[C@H](CCCNC(=N)N)NC1=O (Ac-DRW[2Nal][dQ]K-NH2; lactam 1-6) |
| Not Active | Not Active | 0 | Not Active | Not Active |  | Not Active | 0 |  | 0 | 0 | Not Active |  | Not Active | Not Active |  | C[C@@H]1NC(=O)[C@H](CC(N)=O)NC(=O)[C@H](Cc2ccccc2)NC(=O)[C@H](Cc2c[nH]c3ccccc23)NC(=O)[C@H](CCCNC(=N)N)NC(=O)CC[C@@H](C(N)=O)NC(=O)[C@H](Cc2ccccc2)NC1=O (RWFNAFE-NH2; lactam N-7) |
| Not Active | Not Active | 0 | Not Active | Not Active |  | Not Active | 0 |  | 0 |  |  |  | Not Active | Not Active |  | C[C@@H]1NC(=O)[C@@H](Cc2cnc[nH]2)NC(=O)[C@H](Cc2ccccc2)NC(=O)[C@H](Cc2c[nH]c3ccccc23)NC(=O)[C@H](CCCNC(=N)N)NC(=O)CC[C@@H](C(N)=O)NC(=O)[C@H](Cc2ccccc2)NC1=O (RWF[dH]AFE-NH2; lactam N-7) |
| Not Active | Not Active | 0 | Not Active | Not Active | 0 | Not Active | 0 |  |  | 0 | Not Active |  | Not Active | Not Active |  | C[C@@H]1NC(=O)[C@@H](CC(N)=O)NC(=O)[C@H](Cc2ccccc2)NC(=O)[C@H](Cc2c[nH]c3ccccc23)NC(=O)[C@H](CCCNC(=N)N)NC(=O)CC[C@@H](C(N)=O)NC(=O)[C@H](Cc2ccccc2)NC1=O (RWF[dN]AFE-NH2; lactam N-7) |
| Not Active | Not Active |  | Not Active | Not Active | 0 | Not Active | 0 |  |  |  | Not Active | 0 | Not Active | Not Active | 0 | C[C@@H]1NC(=O)[C@@H](CCC(N)=O)NC(=O)[C@H](Cc2ccccc2)NC(=O)[C@H](Cc2c[nH]c3ccccc23)NC(=O)[C@H](CCCNC(=N)N)NC(=O)CC[C@@H](C(N)=O)NC(=O)[C@H](Cc2ccccc2)NC1=O (RWF[dQ]AFE-NH2; lactam N-7) |
| Not Active | Not Active | 0 | Not Active | Not Active | 0 | Not Active |  | 0 |  |  | Not Active | 0 | Not Active | Not Active |  | C[C@@H]1NC(=O)[C@@H](CC(N)=O)NC(=O)[C@H](Cc2ccc3ccccc3c2)NC(=O)[C@H](Cc2c[nH]c3ccccc23)NC(=O)[C@H](CCCNC(=N)N)NC(=O)CC[C@@H](C(N)=O)NC(=O)[C@H](Cc2ccccc2)NC1=O (RW[2Nal][dN]AFE-NH2; lactam N-7) |
| Not Active | Not Active | 0 | Not Active | Not Active |  | Not Active | 0 |  | 0 | 0 | Not Active |  | Not Active | Not Active |  | C[C@@H]1NC(=O)[C@@H](CCC(N)=O)NC(=O)[C@H](Cc2ccc3ccccc3c2)NC(=O)[C@H](Cc2c[nH]c3ccccc23)NC(=O)[C@H](CCCNC(=N)N)NC(=O)CC[C@@H](C(N)=O)NC(=O)[C@H](Cc2ccccc2)NC1=O (RW[2Nal][dQ]AFE-NH2; lactam N-7) |
| Not Active | Not Active |  | Not Active | Not Active |  | Not Active | 0 |  | 0 |  | Not Active | 0 | Not Active | Not Active | 0 | C[C@@H]1NC(=O)[C@H](Cc2cnc[nH]2)NC(=O)[C@@H](Cc2ccccc2)NC(=O)[C@H](Cc2c[nH]c3ccccc23)NC(=O)[C@H](CCCNC(=N)N)NC(=O)CC[C@@H](C(N)=O)NC(=O)[C@H](Cc2ccccc2)NC1=O (RW[dF]HAFE-NH2; lactam N-7) |
| Not Active | Not Active | 0 | Not Active | Not Active |  | Not Active | 0 |  | 0 | 0 | Not Active |  | Not Active | Not Active |  | C[C@@H]1NC(=O)[C@H](CC(N)=O)NC(=O)[C@@H](Cc2ccccc2)NC(=O)[C@H](Cc2c[nH]c3ccccc23)NC(=O)[C@H](CCCNC(=N)N)NC(=O)CC[C@@H](C(N)=O)NC(=O)[C@H](Cc2ccccc2)NC1=O (RW[dF]NAFE-NH2; lactam N-7) |
